System: UM16 cell line
Assay: Nascent RNA sequencing (Bru-seq), gene fold change
Format: cell-based
Conditions: 5 μM, 4 hours
Excerpt: Consistent with this observation, there are also massive metabolite pathways influenced including starch and sucrose metabolism, glycolysis and gluconeogenesis, purine metabolism, pyrimidine metabolism, N-glycan biosynthesis, etc.

## CCOC(=O)[C@@H]1CCCN(S(=O)(=O)c2ccc(S(=O)(=O)N(CC)CC)cc2)C1 [DX2-201, ethyl (R)-1-((4-(N,N-diethylsulfamoyl)phenyl)sulfonyl)piperidine-3-carboxylate]
non-coding RNA, downregulated
  Fold change AC008521.2: 0.1876
  Fold change AC019257.2: 0.2345
  Fold change AC091133.4: 0.2345
  Fold change AC092916.2: 0.1706
  Fold change AC106037.1: 0.2345
  Fold change AL096870.2: 0.02465
  Fold change BX679664.2: 0.1876
  Fold change C1orf50: 0.1876
  Fold change MIR545: 0.1876
  Fold change MIR5000: 0.05752
  Fold change RN7SL128P: 0.1876
  Fold change RN7SL388P: 0.2085
  Fold change RN7SL589P: 0.2165
  Fold change RN7SL833P: 0.2345
  Fold change RNU1-19P: 0.1564
  Fold change RNU1-73P: 0.09381
  Fold change RNU6-122P: 0.04314
  Fold change RNU6-398P: 0.03451
  Fold change RNU6-519P: 0.1564
  Fold change RNU6-548P: 0.05752
  Fold change SNORA73: 0.2345
  Fold change TERC: 0.04314
  Fold change Y_RNA: 0.02876
  Fold change Z99127.3: 0.1876
  Fold change ZBTB40-IT1: 0.2345
non-coding RNA, upregulated
  Fold change AC007686.1: 2.01
  Fold change AC007952.4: 2.345
  Fold change AC008687.3: 2.033
  Fold change AC034198.2: 2.345
  Fold change AC105020.4: 1.782
  Fold change AC139887.1: 2.064
  Fold change AL136982.3: 2.217
  Fold change AL161729.3: 1.993
  Fold change AL627171.1: 1.841
  Fold change AL645939.5: 1.876
  Fold change AP001527.2: 2.217
  Fold change AP001619.1: 1.62
  Fold change AP003168.2: 1.689
  Fold change DPRXP4: 3.19
  Fold change EIF5AP3: 1.876
  Fold change HMGN1P15: 2.111
  Fold change RNA5SP379: 2.814
  Fold change RNU6-182P: 20.4
  Fold change RNU6-396P: 1.876
  Fold change RNU6-531P: 2.814
  Fold change RNU6-564P: 2.814
  Fold change RNU6-1272P: 25.5
  Fold change RNY3P2: 1.876
  Fold change SNORD124: 1.876
  Fold change Y_RNA: 15.3
protein-coding, downregulated
  Fold change A2ML1: 0.582
  Fold change ARRDC4: 0.4315
  Fold change BDKRB2: 0.6044
  Fold change DGAT2: 0.5129
  Fold change DPAGT1: 0.6034
  Fold change FAM86C1: 0.6053
  Fold change FAM86HP: 0.5946
  Fold change FAM200A: 0.5595
  Fold change FOXA2: 0.6075
  Fold change G0S2: 0.4666
  Fold change GGCT: 0.6012
  Fold change HLF: 0.4727
  Fold change INTS5: 0.4515
  Fold change L3HYPDH: 0.6301
  Fold change PCED1A: 0.576
  Fold change PLLP: 0.5843
  Fold change POLR2J4: 0.4775
  Fold change RRS1: 0.5686
  Fold change SCARNA5: 0.4376
  Fold change SLC5A6: 0.6234
  Fold change SNHG21: 0.5497
  Fold change SNORA62: 0.5968
  Fold change SNORA71C: 0.6023
  Fold change TMED1: 0.6232
  Fold change TXNIP: 0.4997
protein-coding, upregulated
  Fold change ANKRD37: 2.182
  Fold change ARG2: 2.569
